From US20120177797A1, “TASTE ENHANCING AGENT” (J-OIL MILLS, INC., priority 2009, published 2012)

What was measured:
Format in all cases: in vivo
[1] = Sensory evaluation whether sucrose usage can be reduced; conditions: 10 ppm added to 1.5% aqueous sucrose solution; for Scores in sensory evaluation (taste intensity, sweetness): 1.5% sucrose solution = 3.0, scale 1.0-5.0
Description: (§1) All sensory evaluation of taste was performed by individuals wearing a nose clip. The evaluation was performed by groups of three individuals, and the scores were averaged.
Evaluation was conducted to find whether sucrose usage can be reduced by the taste enhancing effects. To a 1.5% aqueous sucrose solution was added 10 ppm n-hexanal or 10 ppm 1-octen-3-ol. Taste intensity was determined in the sensory evaluation where the taste intensity of the 1.5% sucrose solution was set to 3.0. For comparison, sensory evaluation was also performed for a 2.0% and 1.8% concentration of aqueous sucrose solution. The sensory evaluation was evaluated as follows. The results are shown in Table 6. • 1.0: Much weaker • 2.0: Weaker • 3.0: Similar • 4.0: Stronger • 5.0: Much stronger

[2] = Sensory evaluation, intensity of sweetness in aqueous sucrose solution; conditions: additive-free = 3.0, scale 1.0-5.0
[3] = Sensory evaluation, intensity of umami in aqueous MSG solution; conditions: additive-free = 3.0, scale 1.0-5.0
[4] = Sensory evaluation whether salt usage can be reduced; conditions: 10 ppm added to 0.5% aqueous NaCl solution; for Scores in sensory evaluation (taste intensity, saltiness): 0.5% NaCl solution = 3.0, scale 1.0-5.0
Description: as §1
Evaluation was conducted to find whether salt usage can be reduced by the taste enhancing effects. To a 0.5% aqueous NaCl solution was added 10 ppm n-hexanal or 10 ppm 1-octen-3-ol. Taste intensity was determined in the sensory evaluation where the taste intensity of the 0.5% NaCl solution was set to 3.0. For comparison, sensory evaluation was also performed for a 0.8% and 0.6% concentration of aqueous NaCl solution. The sensory evaluation was evaluated as follows. The results are shown in Table 5. • 1.0: Much weaker • 2.0: Weaker • 3.0: Similar • 4.0: Stronger • 5.0: Much stronger

[5] = Sensory evaluation, intensity of saltiness in aqueous NaCl solution; conditions: additive-free = 3.0
Description: as §1
(§2) To a 0.2% aqueous sodium glutamate (MSG) solution (=umami), a 0.8% aqueous salt (NaCl) solution (=saltiness) and a 2% aqueous sucrose solution (=sweetness) were added 10 ppm linear aliphatic aldehydes having 3-12 carbon atoms shown in Table 1, respectively. Sensory evaluation was performed in which intensity of taste sensed when each of the aqueous solutions is introduced into the mouth is defined as “Intensity of umami” for the aqueous MSG solution, “Intensity of saltiness” for the aqueous NaCl solution and “Intensity of sweetness” for the aqueous sucrose solution. The score of aldehyde-free taste intensity was set to 3.0, and taste intensity upon addition of aldehyde was evaluated as follows. The results are shown in Table 1. • 1.0: Much weaker • 2.0: Weaker • 3.0: Similar • 4.0: Stronger • 5.0: Much Stronger
(§3) To a 0.2% aqueous sodium glutamate (MSG) solution (=umami), a 0.8% aqueous salt (NaCl) solution (=saltiness), a 2% aqueous sucrose solution (=sweetness) were added 10 ppm linear aliphatic alcohols having 2-11 carbon atoms, respectively. Sensory evaluation was performed in which intensity of taste sensed when each of the aqueous solutions is introduced into the mouth is defined as “Intensity of umami” for the aqueous MSG solution, “Intensity of saltiness” for the aqueous NaCl solution and “Intensity of sweetness” for the aqueous sucrose solution. The score of alcohol-free taste intensity was set to 3.0, and taste intensity upon addition was evaluated as follows. The results are shown in Table 3. • 1.0: Much weaker • 2.0: Weaker • 3.0: Similar • 4.0: Stronger • 5.0: Much stronger
(§4) To a 0.2% aqueous sodium glutamate (MSG) solution (=umami), a 0.8% aqueous salt (NaCl) solution (=saltiness), a 2% aqueous sucrose solution (=sweetness) were added 1 ppm n-hexanal and 1ppm 1-octene-3-ol each, respectively. Sensory evaluation was performed in which the intensity of taste sensed when each of the aqueous solutions is introduced into the mouth is defined as “Intensity of umami” for the aqueous MSG solution, “Intensity of saltiness” for the aqueous NaCl solution and “Intensity of sweetness” for the aqueous sucrose solution. The score of additive-free taste intensity was set to 3.0, and taste intensity upon addition was evaluated as follows. The results are shown in Table 9. • 1.0: Much weaker • 2.0: Weaker • 3.0: Similar • 4.0: Stronger • 5.0: Much stronger

[6] = Sensory evaluation, intensity of sweetness in aqueous sucrose solution; conditions: additive-free = 3.0
Description: as §1, §2, §3, §4

[7] = Sensory evaluation, intensity of umami in aqueous MSG solution; conditions: additive-free = 3.0
Description: as §1, §2, §3, §4

[8] = Sensory evaluation, intensity of saltiness in aqueous NaCl solution; conditions: additive-free = 3.0, scale 1.0-5.0
[9] = Sensory evaluation, intensity of saltiness in diluted soy sauce; conditions: 10 ppm in soy sauce diluted to 2% in water; aldehyde-free = 3.0; scale 1.0-5.0
Description: as §1
(§5) Sensory evaluation was performed for “Intensity of Umani ” and “ Intensity of Saltiness “. The score of aldehyde-free taste intensity was set to 3.0, and taste intensity upon addition was evaluated as follows. The results are shown in Table 7. • 1.0: Much weaker • 2.0: Weaker • 3.0: Similar • 4.0: Stronger • 5.0: Much stronger

[10] = Sensory evaluation, intensity of sweetness in whipped cream; conditions: 100 ppm in whipped cream; aldehyde-free = 3.0; scale 1.0-5.0
Description: as §1
Sensory evaluation was performed for “Intensity of sweetness”. The score of aldehyde-free taste intensity was set to 3.0, and taste intensity upon addition was evaluated as follows. The results are shown in Table 8. • 1.0: Much weaker • 2.0: Weaker • 3.0: Similar • 4.0: Stronger • 5.0: Much stronger

[11] = Sensory evaluation, intensity of umami in diluted soy sauce; conditions: 10 ppm in soy sauce diluted to 2% in water; aldehyde-free = 3.0; scale 1.0-5.0
Description: as §1, §5

[12] = 1 ppm added to 0.8% NaCl, scale 1.0-5.0
[13] = 10 ppm added to 0.8% NaCl, 1.0 much weaker to 5.0 much stronger
[14] = 1 ppm added to 2% sucrose, scale 1.0-5.0
[15] = 10 ppm added to 2% sucrose, 1.0 much weaker to 5.0 much stronger
[16] = 1 ppm added to 0.2% MSG, scale 1.0-5.0
[17] = 10 ppm added to 0.2% MSG, 1.0 much weaker to 5.0 much stronger, mean of three individuals, nose clip

For `C=CC(O)CCCCC` (centres unmarked) [Example 1-octen-3-ol, 1-octen-3-ol], the “Concentration of aqueous sucrose solution of comparable/similar sweetness intensity” value [1] was ~1.8%, the “Scores in sensory evaluation (taste intensity, sweetness)” value [1] was 3.5 and the “Intensity of sweetness, Aqueous sucrose solution” value ([2]; 0.01 ppm added to 2% sucrose) was 3.2. For the same compound, the “Intensity of sweetness, Aqueous sucrose solution” value ([2]; 0.1 ppm added to 2% sucrose) was 3.2, the “Intensity of sweetness, Aqueous sucrose solution” value ([2]; 100 ppm added to 2% sucrose) was 3.5 and the “Intensity of sweetness, Aqueous sucrose solution” value ([2]; 1000 ppm added to 2% sucrose) was 3.5. The “Intensity of umami, Aqueous MSG solution” value ([3]; 0.01 ppm added to 0.2% MSG) was 3.2, the “Intensity of umami, Aqueous MSG solution” value ([3]; 0.1 ppm added to 0.2% MSG) was 3.2 and the “Intensity of umami, Aqueous MSG solution” value ([3]; 100 ppm added to 0.2% MSG) was 3.8. For the same compound, the “Intensity of umami, Aqueous MSG solution” value ([3]; 1000 ppm added to 0.2% MSG) was 3.8, the “Concentration of aqueous NaCl solution of similar saltiness intensity” value [4] was ~0.6% and the “Scores in sensory evaluation (taste intensity, saltiness)” value [4] was 3.5. For the same compound, the “Intensity of saltiness, Aqueous NaCl solution” value [5, 12] was 3.5, the “Intensity of saltiness, Aqueous NaCl solution” value [5, 13] was 3.5 and the “Intensity of sweetness, Aqueous sucrose solution” value [6, 14] was 3.2. For the same compound, the “Intensity of sweetness, Aqueous sucrose solution” value [6, 15] was 3.5, the “Intensity of umami, Aqueous MSG solution” value [7, 16] was 3.5 and the “Intensity of umami, Aqueous MSG solution” value [7, 17] was 3.5. The “Intensity of saltiness, Aqueous NaCl solution” value ([8]; 0.01 ppm added to 0.8% NaCl) was 3.2, the “Intensity of saltiness, Aqueous NaCl solution” value ([8]; 0.1 ppm added to 0.8% NaCl) was 3.5 and the “Intensity of saltiness, Aqueous NaCl solution” value ([8]; 100 ppm added to 0.8% NaCl) was 3.8. The “Intensity of saltiness, Aqueous NaCl solution” value ([8]; 1000 ppm added to 0.8% NaCl) was 3.8.
In the case of `CCCCCC=O` [n-hexanal], the Intensity of saltiness [9] is reported as 4.5, the “Concentration of aqueous sucrose solution of comparable/similar sweetness intensity” value [1] is reported as ~2.0% and the “Scores in sensory evaluation (taste intensity, sweetness)” value [1] is reported as 4.0. The Intensity of sweetness [10] was 4.5, the “Intensity of sweetness, Aqueous sucrose solution” value ([2]; 0.001 ppm added to 2% sucrose) was 3.5 and the “Intensity of sweetness, Aqueous sucrose solution” value ([2]; 0.01 ppm added to 2% sucrose) was 3.8. For the same compound, the “Intensity of sweetness, Aqueous sucrose solution” value ([2]; 0.1 ppm added to 2% sucrose) was 3.8, the “Intensity of sweetness, Aqueous sucrose solution” value ([2]; 100 ppm added to 2% sucrose) was 4.5 and the “Intensity of sweetness, Aqueous sucrose solution” value ([2]; 1000 ppm added to 2% sucrose) was 5.0. The Intensity of umami [11] was 4.5, the “Intensity of umami, Aqueous MSG solution” value ([3]; 0.001 ppm added to 0.2% MSG) was 3.5 and the “Intensity of umami, Aqueous MSG solution” value ([3]; 0.01 ppm added to 0.2% MSG) was 4.0. For the same compound, the “Intensity of umami, Aqueous MSG solution” value ([3]; 0.1 ppm added to 0.2% MSG) was 4.2, the “Intensity of umami, Aqueous MSG solution” value ([3]; 100 ppm added to 0.2% MSG) was 5.0 and the “Intensity of umami, Aqueous MSG solution” value ([3]; 1000 ppm added to 0.2% MSG) was 5.0. For the same compound, the “Concentration of aqueous NaCl solution of similar saltiness intensity” value [4] was ~0.8%, the “Scores in sensory evaluation (taste intensity, saltiness)” value [4] was 4.0 and the “Intensity of saltiness, Aqueous NaCl solution” value [5, 12] was 4.3. For the same compound, the “Intensity of saltiness, Aqueous NaCl solution” value [5, 13] was 5.0, the “Intensity of sweetness, Aqueous sucrose solution” value [6, 14] was 3.8 and the “Intensity of sweetness, Aqueous sucrose solution” value [6, 15] was 4.5. For the same compound, the “Intensity of umami, Aqueous MSG solution” value [7, 16] was 4.3, the “Intensity of umami, Aqueous MSG solution” value [7, 17] was 5.0 and the “Intensity of saltiness, Aqueous NaCl solution” value ([8]; 0.001 ppm added to 0.8% NaCl) was 3.5. For the same compound, the “Intensity of saltiness, Aqueous NaCl solution” value ([8]; 0.01 ppm added to 0.8% NaCl) was 4.0, the “Intensity of saltiness, Aqueous NaCl solution” value ([8]; 0.1 ppm added to 0.8% NaCl) was 4.2 and the “Intensity of saltiness, Aqueous NaCl solution” value ([8]; 100 ppm added to 0.8% NaCl) was 5.0. For the same compound, the “Intensity of saltiness, Aqueous NaCl solution” value ([8]; 1000 ppm added to 0.8% NaCl) was 5.0.
